IC50 and Hypoglycemic rate data for 21 molecules are collected here from patent publication US9643946B2, “Tricyclic compound and use thereof” (SK CHEMICALS CO., LTD., priority 2013, dated 2017).

Sequence of human GPR40 protein (O14842 whole entry): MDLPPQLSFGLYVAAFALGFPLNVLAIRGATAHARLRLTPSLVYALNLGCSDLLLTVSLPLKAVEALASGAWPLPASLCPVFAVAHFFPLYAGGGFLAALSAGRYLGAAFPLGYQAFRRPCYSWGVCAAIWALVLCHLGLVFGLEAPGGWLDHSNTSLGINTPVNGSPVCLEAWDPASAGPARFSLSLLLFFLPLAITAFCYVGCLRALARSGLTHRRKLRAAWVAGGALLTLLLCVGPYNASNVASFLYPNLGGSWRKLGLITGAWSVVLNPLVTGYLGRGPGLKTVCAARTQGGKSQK

One experiment has as its target human GPR40 protein (Homo sapiens, UniProt O14842). The experiment is described as follows: GPR40 agonist binding inhibition (displacement of 3H-labeled propanoic acid radioligand). The note with it: membrane protein including human GPR40, 3H-labeled propanoic acid radioligand, 25° C., 2 hours; read-out: Half maximal inhibitory concentration. The protocol: Measurement of 50% Inhibitory Concentration (ID50) for GPR40 Agonist Binding
To examine the efficacy of the compounds according to one exemplary embodiment of the present invention in modulating GPR40, the half maximal inhibitory concentrations (IC50) of the compounds according to one exemplary embodiment of the present invention were measured by Microbeta2™ (PerkinElmer Inc.) using a change in radiation dose emitted from ^3H-labeled propanoic acid (i.e., 3-(4-((2,6′-dimethyl-6-((4-(^3H))-phenylmethoxy)biphenyl-3-yl)methoxy)phenyl)propanoic acid), which is a radioactive isotope which binds to a human GPR40 protein, as an indicator.
Specifically, a test compound was prepared by serial dilution with DMSO, and 100 μL of a binding buffer (including 25 mM HEPES (pH 7.5), 5 mM MgCl2, 100 mM NaCl, and 0.1% free fatty acid BSA; Sigma-Aldrich Corp.) was put into each well of a 96-well transparent plate. Thereafter, each of the diluted compound, propanoic acid which was prepared by dissolving propanoic acid in DMSO to a concentration of 500 mM and not labeled with a radioactive isotope, and DMSO was dispensed at 5 μL per well. ^3H-labeled propanoic acid was dissolved in a binding buffer at a concentration of 1 nM and dispensed at 50 μL into the corresponding wells, and a membrane protein including a human GPR40 protein was dissolved in a binding buffer at a concentration of 20 μg/well and dispensed at 100 μL, into the corresponding wells.
After the dispensation was completed, the plate was incubated at a temperature of 25° C. and a rotary speed of 230 rpm for 2 hours while shaking. A human GPR40 complex was transferred to Filtermat A (PerkinElmer Inc.) using a cell harvester (PerkinElmer Inc.), washed 10 times with 50 mM tris-HCl, dried, and then scintillated using Meltilex (PerkinElmer Inc.). Thereafter, an emitted radiation dose was measured using Microbeta2™. The radiation doses emitted from the complex in the well containing 10 mM unlabeled propanoic acid and the complex in the well containing DMSO alone were set as 0% and 100%, respectively. Thus, a change curve for each of the radiation doses was plotted to calculate the half maximal inhibitory concentration of the test compound.
In the case of `Cc1cc(OCCCS(C)(=O)=O)cc2c1-c1cccc(COc3ccc4c(c3)OC[C@H]4CC(=O)O)c1CCC2` [Example 1, 2-((3S)-6-((11-methyl-9-(3-(methylsulfonyl)propoxy)-6,7-dihydro-5H-dibenzo[a,c][7]annulen-4-yl)methoxy)-2,3-dihydrobenzofuran-3-yl)acetic acid], the IC50 stood at 158 nM.

Take `Cc1cc(OCCCS(C)(=O)=O)cc2c1-c1cc(COc3ccc4c(c3)OC[C@H]4CC(=O)O)ccc1OCC2` [Example 14, 2-((3S)-6-((11-methyl-9-(3-(methylsulfonyl)propoxy)-6,7-dihydrodibenzo[b,d]oxepin-2-yl)methoxy)-2,3-dihydrobenzofuran-3-yl)acetic acid]: the IC50 was 17.7 nM. Same read-out and setting: in the case of `CS(=O)(=O)CCCOc1ccc2c(c1)COCc1ccc(CNc3ccc([C@H]4C[C@@H]4C(=O)O)cc3)cc1-2` [Example 18, (1S,2S)-2-(4-(((9-(3-(methylsulfonyl)propoxy)-5,7-dihydrodibenzo[c,e]oxepin-2-yl)methyl)amino)phenyl)cyclopropanecarboxylic acid] it was 752 nM. Regarding `CS(=O)(=O)CCCOc1ccc2c(c1)CCCc1ccc(COc3ccc([C@H]4C[C@@H]4C(=O)O)cc3)cc1-2` [Example 25, (1S,2S)-2-(4-((9-(3-(methylsulfonyl)propoxy)-6,7-dihydro-5H-dibenzo[a,c][7]annulen-2-yl)methoxy)phenyl)cyclopropanecarboxylic acid], the IC50 came out at 103 nM. As for `Cc1cc(OCCCS(C)(=O)=O)cc2c1-c1cc(COc3ccc([C@H]4C[C@@H]4C(=O)O)cc3)ccc1CC2` [Example 31, (1S,2S)-2-(4-((5-methyl-7-(3-(methylsulfonyl)propoxy)-9,10-dihydrophenanthren-3-yl)methoxy)phenyl)cyclopropanecarboxylic acid], the IC50 amounted to 45.7 nM.

Take `CCS(=O)(=O)CCCOc1cc(C)c2c(c1)CCOc1ccc(COc3ccc4c(c3)OC[C@H]4CC(=O)O)cc1-2` [Example 38, 2-((3S)-6-((9-(3-(ethylsulfonyl)propoxy)-11-methyl-6,7-dihydrodibenzo[b,d]oxepin-2-yl)methoxy)-2,3-dihydrobenzofuran-3-yl)acetic acid]: the IC50 was 39.1 nM.

With `CCS(=O)(=O)CCCOc1cc(C)c2c(c1)CCOc1ccc(COc3ccc([C@H]4C[C@@H]4C(=O)O)c(F)c3)cc1-2` [Example 41, (1S,2S)-2-(4-((9-(3-(ethylsulfonyl)propoxy)-11-methyl-6,7-dihydrodibenzo[b,d]oxepin-2-yl)methoxy)-2-fluorophenyl)cyclopropanecarboxylic acid], the IC50 came out at 125 nM. As to `CCN1CCc2cc(OCCCS(C)(=O)=O)ccc2-c2cc(COc3ccc4c(c3)OC[C@H]4CC(=O)O)ccc21` [Example 44, (S)-2-(6-((5-ethyl-9-(3-(methylsulfonyl)propoxy)-6,7-dihydro-5H-dibenzo[b,d]azepin-2-yl)methoxy)-2,3-dihydrobenzofuran-3-yl)acetic acid], the IC50 was found to be 75.7 nM.

Take `Cc1cc(OCC2CCS(=O)(=O)CC2)cc2c1-c1cc(COc3ccc4c(c3)OC[C@H]4CC(=O)O)ccc1OCC2` [Example 47, 2-((3S)-6-((9-((1,1-dioxidotetrahydro-2H-thiopyran-4-yl)methoxy)-11-methyl-6,7-dihydrodibenzo[b,d]oxepin-2-yl)methoxy)-2,3-dihydrobenzofuran-3-yl)acetic acid]: the IC50 stood at 53.1 nM.

Consider `Cc1cc(OC2CCS(=O)(=O)CC2)cc2c1-c1cc(COc3ccc([C@H]4C[C@@H]4C(=O)O)cc3)ccc1CCC2` [Example 59, (1S,2S)-2-(4-((9-((1,1-dioxidotetrahydro-2H-thiopyran-4-yl)oxy)-11-methyl-6,7-dihydro-5H-dibenzo[a,c][7]annulen-2-yl)methoxy)phenyl)cyclopropanecarboxylic acid], for which the IC50 amounted to 71 nM. `CCS(=O)(=O)CCCOc1cc(C)c2c(c1)CCCc1ccc(COc3ccc([C@H]4C[C@@H]4C(=O)O)cc3)cc1-2` [Example 61, (1S,2S)-2-(4-((9-(3-(ethylsulfonyl)propoxy)-11-methyl-6,7-dihydro-5H-dibenzo[a,c][7]annulen-2-yl)methoxy)phenyl)cyclopropanecarboxylic acid]: the IC50 came out at 26.6 nM. As for `O=C(O)C[C@@H]1COc2cc(OCc3ccc4c(c3)-c3ccc(OCC5(O)CCS(=O)(=O)CC5)cc3CCC4)ccc21` [Example 65, (S)-2-(6-((9-((4-hydroxy-1,1-dioxidotetrahydro-2H-thiopyran-4-yl)methoxy)-6,7-dihydro-5H-dibenzo[a,c][7]annulen-2-yl)methoxy)-2,3-dihydrobenzofuran-3-yl)acetic acid], the IC50 was determined as 160 nM. With `Cc1cc(OC2CCS(=O)(=O)CC2)cc2c1-c1cc(CNc3ccc([C@H]4C[C@@H]4C(=O)O)cc3)ccc1CCC2` [Example 76, (1S,2S)-2-(4-(((9-((1,1-dioxidotetrahydro-2H-thiopyran-4-yl)oxy)-11-methyl-6,7-dihydro-5H-dibenzo[a,c][7]annulen-2-yl)methyl)amino)phenyl)cyclopropanecarboxylic acid], the IC50 is 14.7 nM.

Take `C[C@@H]1Cc2cc(OCCCS(C)(=O)=O)ccc2-c2cc(COc3ccc4c(c3)OC[C@H]4CC(=O)O)ccc2O1` [Example 79, 2-((S)-6-(((R)-6-methyl-9-(3-(methylsulfonyl)propoxy)-6,7-dihydrodibenzo[b,d]oxepin-2-yl)methoxy)-2,3-dihydrobenzofuran-3-yl)acetic acid]: the IC50 is 84.4 nM. For the molecule `Cc1nc(N2CCOCC2)nc2c1-c1cc(COc3ccc4c(c3)OC[C@H]4CC(=O)O)ccc1CCC2` [Example 81, 2-((3S)-6-((1-methyl-3-morpholino-6,7-dihydro-5H-benzo[3,4]cyclohepta[1,2-d]pyrimidin-10-yl)methoxy)-2,3-dihydrobenzofuran-3-yl)acetic acid], the IC50 turned out to be 181 nM. Take `CC1(COc2ccc3c(c2)CCCc2ccc(COc4ccc5c(c4)OC[C@H]5CC(=O)O)cc2-3)CCS(=O)(=O)CC1` [Example 93, (S)-2-(6-((9-((4-methyl-1,1-dioxidotetrahydro-2H-thiopyran-4-yl)methoxy)-6,7-dihydro-5H-dibenzo[a,c][7]annulen-2-yl)methoxy)-2,3-dihydrobenzofuran-3-yl)acetic acid]: the IC50 stood at 50.5 nM.

In the case of `CCS(=O)(=O)CCCOc1ccc2c(c1)CCCc1cc(F)c(CNc3ccc([C@H]4C[C@@H]4C(=O)O)cc3)cc1-2` [Example 105, (1S,2S)-2-(4-(((9-(3-(ethylsulfonyl)propoxy)-3-fluoro-6,7-dihydro-5H-dibenzo[a,c][7]annulen-2-yl)methyl)amino)phenyl)cyclopropanecarboxylic acid], the IC50 stood at 16.2 nM. Consider `CC#C[C@@H](CC(=O)O)c1ccc(OCc2ccc3c(c2)-c2ccc(OCC4CCS(=O)(=O)CC4)cc2CCC3)cc1` [Example 109, (S)-3-(4-((9-((1,1-dioxidotetrahydro-2H-thiopyran-4-yl)methoxy)-6,7-dihydro-5H-dibenzo[a,c][7]annulen-2-yl)methoxy)phenyl)hex-4-ynoic acid], for which the IC50 turned out to be 5.6 nM.

In the next experiment the test system is male ZFDM rats. The experiment is described as follows: Hypoglycemic rate after oral glucose loading in rats. The class given is in vivo, rat. The note with it: oral 0.1 to 30 mg/kg one hour before glucose loading (1.5 g/kg), blood glucose AUC 0 to 120 minutes versus control. The protocol:
Measurement of Hypoglycemic Rate in Rats
An effect of the compound according to one exemplary embodiment of the present invention on blood glucose inhibition after glucose loading was examined in male ZFDM rats (Japan SLC, Inc.).
Specifically, male ZFDM rats (7 week-old) pre-fed for a week were fasted overnight, and used as an animal to be tested. A test compound was prepared into a 0.5% methylcellulose suspension, which was orally administered to rats at a dose of 0.1 to 30 mg/kg before an hour of glucose loading (1.5 g/kg). As the control, 0.5% methylcellulose was administered. After the glucose administration, blood was drawn from the rats' tails after 0, 15, 30, 60 and 120 minutes to measure a blood glucose level. The area under the curve (AUC) for compound treatment was calculated using a blood glucose change profile from t=0 to 120 minutes, and a hypoglycemic rate (%) for the control was calculated.
Regarding `Cc1cc(OCCCS(C)(=O)=O)cc2c1-c1cc(COc3ccc4c(c3)OC[C@H]4CC(=O)O)ccc1OC2` [Example 26, (S)-2-(6-((10-methyl-8-(3-(methylsulfonyl)propoxy)-6H-benzo[c]chromen-2-yl)methoxy)-2,3-dihydrobenzofuran-3-yl)acetic acid], the Hypoglycemic rate is listed as 31.0%. `CCS(=O)(=O)CCCOc1cc(C)c2c(c1)CCCc1ccc(COc3ccc4c(c3)OC[C@H]4CC(=O)O)cc1-2` [Example 57, 2-((3S)-6-((9-(3-(ethylsulfonyl)propoxy)-11-methyl-6,7-dihydro-5H-dibenzo[a,c][7]annulen-2-yl)methoxy)-2,3-dihydrobenzofuran-3-yl)acetic acid] showed a Hypoglycemic rate of 21.7%.

In turn, `O=C(O)[C@H]1C[C@@H]1c1ccc(NCc2ccc3c(c2)-c2ccc(OCC4CCS(=O)(=O)CC4)cc2CCC3)cc1` [Example 78, (1S,2S)-2-(4-(((9-((1,1-dioxidotetrahydro-2H-thiopyran-4-yl)methoxy)-6,7-dihydro-5H-dibenzo[a,c][7]annulen-2-yl)methyl)amino)phenyl)cyclopropanecarboxylic acid] registered a Hypoglycemic rate of 27.4%.
